In data set [1] the test system is HG-3 cells. The data set is described as follows: alamarBlue cell viability assay. The conditions noted are these: for viability at 1 µM / viability at 10 µM / IC50: HG-3, 24 h; for viability at 1 µM: read-out: cell viability, HG-3, 1 µM, 24 h, vehicle = 100%; for IC50: read-out: HG-3 IC50. (In general: The colour change of resazurin is a common sign of viable cells or microbes.)

The subject of data set [2] is PGA-1 cells. The data set is described as follows: alamarBlue cell viability assay. The conditions noted are these: for viability at 10 µM: read-out: cell viability; for IC50: read-out: PGA-1 IC50.
Data set [3] deals with HG-3 cells. The data set is described as follows: LDH cytotoxicity assay (CytoTox 96). Format: cell-based. The conditions noted are these: 24 h. The text has this: (§1) The lactate dehydrogenase (LDH) assay is used to assess the membrane integrity of cells as a function of the cytoplasmic LDH released. The loss of cell membrane integrity (due to cytotoxic insult) is detectable through LDH release into the cell growth medium. The assay is initiated via the reduction in cellular co-factor NAD^+ to NADH catalyzed via the LDH enzyme. Newly formed NADH catalyzes the acidic reduction in iodonitrotetrazolium chloride (INT) to the highly colored formazan (red) (mediated via the diaphorase enzyme). […] At the 10-µM treatment concentration, mild to moderate cytotoxicity (19–47%) was observed. […] Cytotoxicity remained low to mild at 1 µM (4–18%) with 23a displaying the lowest LDH release (4%).
(§2) Following the treatment of the HG-3 and PGA-1 cells at 10 µM for 24 hr, the amount of LDH released was determined using an LDH assay kit from Promega (G1780). Cell lysis solution = 100% cell lysis and LDH release). Data are presented as % cell death at a concentration of 10 µM. Cells were treated with ethanoanthracene compounds 20a, 20f, 23a and 25n (1 µM and 10 µM) for 24 h. Values are shown as the mean of three independent experiments.
(§3) The cytotoxicity of the selected compounds 20a, 20f, 23a and 25n was determined using the CytoTox 96 non-radioactive cytotoxicity assay (Promega Corporation; 2800 Woods Hollow Road, Madison, WI, USA). CLL cells HG-3 and PGA-1 were incubated for 24 h and then treated with the selected compounds 20a, 20f, 23a and 25n at 10-µM and 1-µM concentrations, following the protocol outlined above in the cell viability assay. After 24 h, the lysis solution (10×) (20 µL) was added, and the cells were incubated for a further 1 h to ensure complete cell death. Supernatant (50 µL) was removed from each well and transferred to a clean 96-well plate. “Substrate mix” (50 µL) was added, and the plate was stored in the dark at 20 °C for 30 min. “Stop solution” (50 µL) was added to each well, and the absorbance at 490 nm was recorded using a Dynatech MR5000 plate reader; the % cell death was determined relative to the control cell lysis solution.

The test system of data set [4] is PGA-1 cells. The data set is described as follows: LDH cytotoxicity assay (CytoTox 96). Type of data set: cell-based. The conditions noted are these: PGA-1, 10 µM, 24 h.
From the text: as §1, §2, §3

In data set [5] the test system is HG-3 cells. Briefly: Annexin V/PI apoptosis assay (FACS). Format: cell-based, human. The procedure: (§4) The pro-apoptotic effects of selected nitrovinylethanoanthracene compounds 20a and 20f and anthracene chalcones 23a and 25n in HG-3 cells and PGA-1 cells was then investigated using FITC (fluorescein isothiocyanate), Annexin V/PI (propidium iodide) and FACS (fluorescence-activated cell sorting) analysis to characterize the mode of cellular death induced. Apoptosis was assessed as % total apoptosis (total of early (Q3) and late (Q2) apoptosis).
(§5) CLL cells PGA-1 and HG-3 (1 × 10^6 cells/mL) were treated at 37 °C with either the vehicle (1% (v/v) DMSO) or the ethanoanthracene compounds 20a, 20f, 23a and 25n (10 µM, 5 µM and 1 µM) for 48 h, following the protocol previously described. The cells were then harvested via centrifugation at 400× g in a temperature-controlled Sorvall centrifuge. The cells were rinsed with Ca^2+ Annexin-V-binding buffer (0.1 M HEPES, pH 7.4; 0.14 M NaCl; 25 mM CaCl2, 0.5 mL). The samples were resuspended in FITC Annexin V (diluted 1:33 in Ca^2+ Annexin V-binding buffer, 50 µL) and incubated for 10 min (on ice and protected from light). The samples were washed with Annexin-V-binding buffer and resuspended in a PI solution (0.5 µg/mL, 500 µL) and analyzed within 1 h using a BD Accuri C6 flow cytometer counting 10,000 cells using the FlowJo software Version 10 (FlowJo LLC, Ashland, OR, USA).

Data set [6] has as its system PGA-1 cells. Briefly: Annexin V/PI apoptosis assay (FACS). Format: cell-based, human. As to the method:
as §4, §5

In the next data set the test system is HL-60(TB). Briefly: NCI-60 five-dose assay. Type of data set: cell-based, human. The conditions noted are these: HL-60(TB).
Another data set relates to melanoma cell lines. Briefly: NCI-60 five-dose assay, melanoma cell lines. Format: cell-based, human. The conditions noted are these: range over melanoma cell lines. As to the method:
(§6) A number of our most promising compounds identified through preliminary cell viability testing (23c, 23d, 23f, 23h, 23l, 23m, 23n, 23o, 24f, 24l, 25n and 26n) were selected for NCI drug screening in the 60-cell-line panel. The panel includes nine subcategories based on cancer tissue types, which include leukemia, ovarian, central nervous system, breast, lung, prostate, skin, renal and colon cancer. The compounds were initially assessed in a one-dose assay at a fixed treatment concentration of 10 µM. The compounds selected for further investigation were progressed to a five-dose assay across the concentration ranges of 0.01, 0.1, 1, 10 and 100 µM [72]. The endpoints assessed in the screening protocol were GI50, TGI and LC50 [72].

Data set [7] relates to NCI 60 cancer cell line panel. Briefly: NCI-60 five-dose assay, full-panel means. Type of data set: cell-based. As to the method:
as §6

The next data set deals with leukemia cell panel. Briefly: NCI-60 five-dose assay, leukemia cell panel mean. Format: cell-based, human. The conditions noted are these: mean across the six leukemia cell lines.
In data set [8] the test system is HG-3 cells. The conditions noted are these: 10 µM.
For a further data set, the system named is CCRF-CEM. The data set is described as follows: NCI-60 five-dose assay. Format: cell-based, human.
For another data set, the system named is K-562. The data set is described as follows: NCI-60 five-dose assay. Format: cell-based, human. The conditions noted are these: K-562.
Another data set deals with SR. Briefly: NCI-60 five-dose assay. Type of data set: cell-based, human.
Data set [9] in a line: HPLC stability study in phosphate buffers. Type of data set: physicochemical. In a few lines:
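Compound stock (5 mg in 10 mL 80:20 acetonitrile–water) added to phosphate buffers at pH 4, 7.4 and 9 and held at 37 °C. Sampled over 24 h (0 min to 24 h) and analysed by C18 HPLC with UV detection at 254 nm; single experiments.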

In data set [10] the test system is HG-3 and PGA-1 cell lines. Briefly: alamarBlue cell viability assay, mean of both CLL cell lines. Format: cell-based, human. The conditions noted are these: mean of HG-3 and PGA-1.
The subject of a further data set is MOLT-4. Briefly: NCI-60 five-dose assay. Format: cell-based, human. The conditions noted are these: MOLT-4.
The next data set deals with RPMI-8226. Briefly: NCI-60 five-dose assay. The conditions noted are these: RPMI-8226. Type of data set: cell-based, human.
[11] abbreviates: Homo sapiens, read-out: cell viability, HG-3, 10 µM, 24 h, vehicle = 100%.

Molecules are shown by their SMILES. Values joined by “and” are separate entries in the source; they are usually repeats but may differ in a detail not shown here. Identical values can stand only once. Like-named read-outs stand apart in the source and are kept apart here.

`Cc1ccc(C(=O)/C=C/c2c3ccccc3cc3ccccc23)cc1` [Compound 21j, (E)-3-(anthracen-9-yl)-1-(p-tolyl)prop-2-en-1-one]: the melting point (as a rule, the temperature, or range, at which the solid turns liquid) lay in the range of 98 to 103 °C.
Same read-out and setting: the figure for `O=C(/C=C/c1c2ccccc2cc2ccccc12)c1cccs1` [Compound 21q, (E)-3-(anthracen-9-yl)-1-(thiophen-2-yl)prop-2-en-1-one] is 157 to 158 °C.
As for `O=C(/C=C/c1c2ccccc2cc2ccccc12)c1ccncc1` [Compound 21m, (E)-3-(anthracen-9-yl)-1-(pyridin-4-yl)prop-2-en-1-one], the melting point was in the range of 170 to 173 °C. For the same compound, the viability (as a rule, the share of living cells, or the viability signal relative to a control) at 1 µM in the data set on HG-3 cells [1] (Homo sapiens) was 50 to 61%. The viability at 10 µM with HG-3 cells [1] (setting [11]) fell in the range of 37 to 54%. Moreover, the viability at 10 µM in the data set on PGA-1 cells [2] (Homo sapiens, 24 h) stood at 43%.
As to `O=C1C2C3c4ccccc4C(C=C[N+](=O)[O-])(c4ccccc43)C2C(=O)N1CCCCCCN1C(=O)C2C3c4ccccc4C(C=C[N+](=O)[O-])(c4ccccc43)C2C1=O` (stereo not shown) [Compound 20f], the “LDH release (cytotoxicity, % cell death)” value is 12% with HG-3 cells [3] (HG-3, 1 µM); 19% in the data set with HG-3 cells [3] (HG-3, 10 µM, lysis solution = 100%); 19% in the data set with PGA-1 cells [4]. Moreover, the “potency relative to fludarabine control” value amounted to 165 fold in the data set on HG-3 cells [1] (HG-3, IC50 ratio) and 91 fold in the data set on PGA-1 cells [2] (PGA-1, IC50 ratio). The IC50 (commonly the point on the concentration scale where inhibition reaches its midpoint) in the data set with HG-3 cells [1] (Homo sapiens) came to 170 nM; in the data set with PGA-1 cells [2] (Homo sapiens, 24 h) it was 350 nM. Moreover, the viability at 10 µM with HG-3 cells [1] (Homo sapiens, read-out: cell viability) was 14 to 43%; in the data set on PGA-1 cells [2] (Homo sapiens, 24 h), 17%. Moreover, the “total apoptosis (early Q3 + late Q2)” value in the data set on HG-3 cells [5] (HG-3, 1 µM) is 82%; with HG-3 cells [5] (HG-3, 10 µM) it was 82–95% and 82%; with PGA-1 cells [6] (PGA-1, 1 µM) it was 76%; with PGA-1 cells [6] (PGA-1, 10 µM) it was 87–97% and 88%.
Take `COc1cc(C(=O)/C=C/c2c3ccccc3cc3ccccc23)cc(OC)c1OC` [Compound 21k, (E)-3-(Anthracen-9-yl)-1-(3,4,5-trimethoxyphenyl)prop-2-en-1-one]: the melting point was 160 to 164 °C. Further, the viability at 1 µM in the data set on HG-3 cells [1] (Homo sapiens) is 50 to 61%. Besides, the viability at 10 µM in the data set on HG-3 cells [1] (setting [11]) lay within 37 to 54%. Besides, in the data set on PGA-1 cells [2] (Homo sapiens, 24 h), the viability at 10 µM worked out at 43%.
`CCc1ccc(C(=O)/C=C/c2c3ccccc3cc3ccccc23)cc1` [Compound 21c, (E)-3-(anthracen-9-yl)-1-(4-ethylphenyl)prop-2-en-1-one] returned a melting point of 128 to 129 °C.
In the case of `O=C(/C=C/c1c2ccccc2cc2ccccc12)c1ccc2ccccc2c1` [Compound 21p, (E)-3-(anthracen-9-yl)-1-(naphthalen-2-yl)prop-2-en-1-one], the melting point is 160 to 164 °C. Also, the viability at 10 µM in the data set with PGA-1 cells [2] (Homo sapiens, 24 h) was 50%.
With `COC(=O)C1=C(C(=O)OC)C2(C=CC(=O)c3ccccc3)c3ccccc3C1c1ccccc12` [Compound 27, Dimethyl (E)-9-(3-oxo-3-phenylprop-1-en-1-yl)-9,10-dihydro-9,10-ethenoanthracene-11,12-dicarboxylate], the melting point was more than 250 °C. Besides, in the data set with HG-3 cells [1] (setting [11]), the viability at 10 µM stood at 50%. In addition, in the data set with PGA-1 cells [2] (Homo sapiens, 24 h), the viability at 10 µM was 58%.
Turning to `O=C(/C=C/C12c3ccccc3C(c3ccccc31)C1C(=O)NC(=O)C12)c1ccccn1` (stereo not shown) [Compound 23n], the GI50 (in general, the concentration that inhibits growth by half) with HL-60(TB) was 1020 nM; with melanoma cell lines, 1120 to 2140 nM; in data set [7] (mean over NCI 60 cell line panel, read-out: Mean GI50 (MID GI50, full-panel mean-graph mid-point)), 1660 nM; in the data set on leukemia cell panel it was 1320 nM; in the data set on CCRF-CEM, 1440 nM; in the data set on K-562, 1370 nM. Besides, the figures for the GI50 in the data set on SR, in the data set on MOLT-4 and in the data set with RPMI-8226 were 780 nM, 2110 nM and 1220 nM, respectively. In addition, the CC50 (as a rule, the concentration at which the toxic effect on the cells reaches its halfway point) in [7] turned out to be 14800 nM. Moreover, the “Mean TGI (MID TGI, total growth inhibition)” value in data set [7] (mean over NCI 60 cell line panel) is 4570 nM. In addition, in the data set on HG-3 cells [8], the cell viability – broadly, a per cent measure of how many cells are alive, often set against a control – is on record as 2%. In addition, the IC50 in the data set on HG-3 cells [1] came out at 2390 nM; in the data set with PGA-1 cells [2] (PGA-1, 24 h), 1480 nM; in [10] it was 1940 nM. Moreover, in [9] (pH 4 buffer, 37 °C), the “Half-life pH 4” value worked out at 19 h. Moreover, in data set [9] (pH 4 buffer, 37 °C, 24 h, HPLC), the “% remaining 24 h pH 4” value was 39% and 38.86%. Moreover, the “Half-life pH 7.4” value in data set [9] (pH 7.4 buffer, 37 °C) is reported as more than 24 h. Also, in data set [9] (pH 7.4 buffer, 37 °C, 24 h, HPLC), the “% remaining 24 h pH 7.4” value was 70% and 70.29%. In addition, the “decrease in compound concentration over 24 h” value in [9] (pH 9.0) was 11%. The “Half-life pH 9” value in data set [9] (pH 9 buffer, 37 °C) was more than 24 h. Moreover, the “% remaining 24 h pH 9” value in data set [9] (pH 9 buffer, 37 °C, 24 h, HPLC) was 89% and 88.59%.
`O=C(/C=C/c1c2ccccc2cc2ccccc12)c1ccccc1` [Compound 21f, (E)-3-(anthracen-9-yl)-1-phenylprop-2-en-1-one] displayed a melting point of 128 to 130 °C.

The values are drawn from paper PMC11359702, “Synthesis and Biochemical Evaluation of Ethanoanthracenes and Related Compounds: Antiproliferative and Pro-Apoptotic Effects in Chronic Lymphocytic Leukemia (CLL)” (Pharmaceuticals, 2024).
